Assay results published in patent publication US10010494B2, “Methods for the treatment of hyperhidrosis” (priority 2005, dated 2018).

Test system: patient suffering from hyperhidrosis
Assay: Oral sulpiride given to a patient suffering from hyperhidrosis
Format: in vivo, human
Conditions: 200 mg daily
Method: A dose of 200 mg Sulpiride was administered to a patient suffering from hyperhidrosis.

CCN1CCCC1CNC(=O)c1cc(S(N)(=O)=O)ccc1OC (stereo not drawn) [Sulpiride, N-[(1-ethylpyrrolidin-2-yl)methyl]-2-methoxy-5-sulfamoyl-benzamide]
duration of reduction in sweating: lasted for as long as the patient took a daily pill
effect on sweating: reduction in sweating
onset of reduction in sweating after beginning taking the drug: 72 h
